The results in this text go back to patent publication US20150246067A1, “ANTIVIRAL TREATMENT OF LYMPHOMA AND CANCER” (THE REGENTS OF THE UNIVERSITY OF MICHIGAN, priority 2009, published 2015).

This experiment has as its system HERV K (HML2). As to the kind of experiment: Reverse transcriptase activity in supernatants of drug-treated NCCIT cells (Reverse Transcription Assay Kit). In kind it is cell-based, human. To be noted: 7 days, increasing doses of drug, supernatant, FIGS. 4A-I. As to the method:
HIV antivirals were assayed to determine which antiviral agents have an antiviral effect against HERV K (HML2). The NCCIT cell line derived from a teratocarcinoma produces many HERV K (HML2) viral particles. NCCIT cells were maintained at 40% confluence in 6-well plates in RPMI medium and incubated for 7 days in the presence of increasing doses of nucleoside or non-nucleoside reverse transcriptase inhibitors or HIV protease inhibitors. Drugs, provided as lyophilized powders by the AIDS Research and Reference Reagent Program, were resuspended to a final concentration of 10 mg/mL (except for PFA: 60 mg/mL) in different solvents as recommended (SEE table 1). Cells were incubated for 7 days at increasing doses of drugs or the vehicle of solution as controls. Supernatants were collected and cell debris was removed by centrifugation at 2300 rpm for 20 min. Supernatant was assessed for Reverse Transcriptase Activity using the Reverse Transcription Assay Kit (Invitrogen) as described by the manufacturer. In addition, supernatants were treated with 20 units of DNAse (Roche) for 1 hour at 37° C. and viral RNA was extracted using the Viral RNA mini kit (Qiagen) as described by the manufacturer. The HERV-K type 2 viral load was measured by quantitative Real Time RT-PCR using primers that expand the type-2 env gene region, which is absent in type-1 viruses, Kenv type2F: 5′-[…]-3′ (SEQ ID NO. 1), and Kenv type2R: 5′-[…]-3′ (SEQ ID NO. 2). Standard curves were generated using serial dilutions of in vitro RNA transcripts as external calibrators. In a similar way, quantities of HERV—K type 2 proviruses were measured by Real Time PCR using 500 ng of isolated DNA.

On to `Cc1cn([C@H]2C[C@H](N=[N+]=[N-])[C@@H](CO)O2)c(=O)[nH]c1=O` [AZT, Zidovudine], for which the “HERV K (HML2) RT activity” value is “reduction”.

For the molecule `Nc1nc(NC2CC2)c2ncn([C@H]3C=C[C@@H](CO)C3)c2n1` [Abacavir], the “HERV K (HML2) RT activity” value was “reduction”.

As to `Nc1nc(=O)n([C@@H]2CS[C@H](CO)O2)cc1F` [FTC, Emtricitabine], the “HERV K (HML2) RT activity” value is reported as “reduction”.

As for `Cc1cn([C@H]2C=C[C@@H](CO)O2)c(=O)[nH]c1=O` [d4T, Stavudine], the “HERV K (HML2) RT activity” value is reported as “reduction”.

Regarding `Nc1ccn([C@H]2CC[C@@H](CO)O2)c(=O)n1` [ddC, zalcitabine], the “HERV K (HML2) RT activity” value is recorded as “reduction”.

On to `O=c1[nH]cnc2c1ncn2[C@H]1CC[C@@H](CO)O1` [ddI, Dideoxyinosine], for which the “HERV K (HML2) RT activity” value is on record as “reduction”.

As for `CC(C)OC(=O)OCOP(=O)(CO[C@H](C)Cn1cnc2c(N)ncnc21)OCOC(=O)OC(C)C` [tenofovir disoproxil, Tenofovir disoproxyl fumarato], the “HERV K (HML2) RT activity” value was “reduction”.

As to `O=c1nc(NO)ccn1[C@@H]1O[C@H](CO)[C@@H](O)[C@H]1O` [β-D hydroxycytidine, β-d hydroxy cytidine], the “HERV K (HML2) RT activity” value is “reduction”.
